This note sets out measurements from patent US9586947B2, “Imidazoline derivatives, preparation methods thereof, and their applications in medicine” (priority 2012, dated 2017).

The term IC50 denotes the concentration needed to halve the response being measured. As usually defined, the AUC is concentration integrated over time. The half-life is the time needed for the level to fall by half in the phase considered. For orientation: MRT means the average time that molecules of a dose stay in the body. In general, Cmax refers to the maximum level reached in the sampled fluid or tissue.

Series [1] deals with PSA secretion of LNCaP cells. Kind of series: Inhibitory activity on PSA secretion of LNCaP cells. It counts as cell-based. To be noted: Homo sapiens, 96 h, read-out: IC50 (inhibition of PSA secretion of LNCaP cells). As for the experimental part: The following in vitro assay was performed to determine the activity of the compounds of the present invention for inhibiting prostate specific antigen (PSA) secretion of LNCaP cells.
(11). Testosterone culture medium: RIPM 1640 culture medium, 10% CS-FBS, 1% Pen Strep, 1 nM testosterone
LNCaP cells were subcultured in cell culture medium, resuspended in active carbon culture medium, and then inoculated into a 96-well plate (100 μl/well) with an inoculation density of 5×10^4 cells/well.
The test compounds were dissolved in DMSO (dimethyl sulfoxide) and prepared as a 10 mM stock solution. When used, the stock solution was diluted with 5×DMSO and then diluted with a threefold gradient to obtain 8 gradient concentrations. Then, the 8 gradient concentrations were each diluted with 20× testosterone culture medium, in order to ensure DMSO concentration in each culture system was 0.5%. Diluted test compounds remained to be tested.
10 μl of diluted test compounds were added to a 96-well plate and mixed gently. 10 μl of 0.5% DMSO diluted with active carbon culture medium was added to the blank group, and 10 μl of 0.5% DMSO diluted with testosterone culture medium was added to the control group. The 96-well plate was cultured in an incubator under the conditions of 37° C. and 5% CO2.
After 4 days of incubation, 60 μl of cell cultural supernatants were collected, and the OD450 value per well was measured on a NOVO Star microplate reader using PSA kit (Abnova, KA0208).
(§1) IC50 values were calculated from the data of the inhibition rates of the test compounds at various concentrations.

Series [2] has as its system LNCaP cells. Kind of series: Proliferation inhibition of LNCaP cells (CCK-8). It counts as cell-based. To be noted: Homo sapiens, 144 h, cultured 3 + 3 days, CCK-8, OD at 450 nm. As for the experimental part:
The following in vitro assay was performed to determine the activity of the compounds of the present invention for inhibiting the proliferation of LNCaP cells.
(1). Cell counting reagent CCK-8 (DOJINDO, CK04)
See experimental procedure from Test Example 1.
After LNCaP cells were cultured for 3 days, the culture medium, test compounds, blank group, and control group were renewed with half of the liquid volume, and were cultured for another 3 days. Then, all 96-well plates were mixed gently with 10 μl of CCK-8 and cultured in an incubator for 2-3 hours under the conditions of 37° C. and 5% CO2. The OD value per well was measured at 450 nm on a Victor3 microplate reader.
as §1

Series [3] is described as follows: Pharmacokinetics assay in rats, intragastric administration. It counts as in vivo. To be noted: Sprague-Dawley, rat, in vivo, po, male SD rats, 5 mg/kg; for Vd/F: read-out: Apparent Distribution Volume Vz/F; for AUC: read-out: Area Under Curve AUC; for CL/F: read-out: Clearance CLz/F; for half-life: read-out: Half-Life T½ (converted); for MRT: read-out: Mean Residence Time MRT; for Cmax: read-out: Plasma Conc. Cmax. As to the method: Male rats were used as test animals. The compounds of Example 6, Example 9, Example 11, Example 13, Example 15, Example 16, Example 17, Example 44, and Example 45 were administered intragastrically to rats to determine the drug concentration in plasma at different time points by LC/MS/MS method. The pharmacokinetic behavior of the compounds of the present invention was studied and evaluated in rats.
27 healthy adult male Sprague-Dawley (SD) rats, purchased from SINO-BRITISH SIPPR/BK LAB. ANIMAL LTD., CO, Certificate No.: SCXK (Shanghai) 2008-0016, were divided into 9 groups, with 3 rats in each group.
The appropriate amount of test compounds was weighed and mixed with 0.5% CMC-Na to prepare a 0.5 mg/mL suspension by an ultrasonic method.
After an overnight fast, 27 SD rats were divided into 9 groups, and administered the compounds intragastrically at a dose of 5.0 mg/kg and an administration volume of 10 mL/kg.
Compounds of Example 6, Example 9, Example 11, Example 13, Example 15, Example 16, Example 17, Example 44, and Example 45 were administered intragastrically to rats. Blood samples (0.1 mL) were taken from the orbital sinus before administration, and at 0.5 h, 1.0 h, 2.0 h, 3.0 h, 4.0 h, 6.0 h, 8.0 h, 11.0 h, and 24.0 h after administration, stored in heparinized tubes, and centrifuged for 5 minutes at 3,500 rpm to separate blood plasma. The plasma samples were stored at −20° C. The rats were fed 2 hours after administration.
The concentration of the different test compounds in rat plasma after intragastrically administering the test compounds was determined by LC-MS/MS method. The linearity of the method is 1.00-2000 ng/ml. Plasma samples were analyzed after protein precipitation was accomplished by the addition of methanol.

The mark [4] stands for this setting: LNCaP cells, 1 nM testosterone medium, 4 days of incubation, PSA kit OD450.

Read-outs that look alike come from different tables or passages of the source.

For `CC1(C)C(=O)N(c2ccc(C#N)c(C(F)(F)F)c2)C(=S)N1c1ccc(O[C@@H]2COC[C@H]2O)c(F)c1` (racemic) [Example 7, 4-(3-(3-Fluoro-4-(((3R,4R/3S,4S)-4-hydroxytetrahydrofuran-3-yl)oxy)phenyl)-4,4-dimethyl-5-oxo-2-thioxoimidazolidin-1-yl)-2-(trifluoromethyl)benzonitrile], the IC50 in series [1] (LNCaP) came to 0.023 µM.

Take `CC1(C)C(=O)N(c2ccc(C#N)c(C(F)(F)F)c2)C(=S)N1c1ccc(O[C@@H]2COC[C@H]2O)cc1` (racemic) [Example 14, 4-(3-(4-(((3R,4R/3S,4S)-4-Hydroxytetrahydrofuran-3-yl)oxy)phenyl)-4,4-dimethyl-5-oxo-2-thioxoimidazolidin-1-yl)-2-(trifluoromethyl)benzonitrile]: in series [1] (LNCaP), the IC50 amounted to 0.019 µM.

On to `CC1(C)C(=O)N(c2ccc(C#N)c(C(F)(F)F)c2)C(=S)N1c1ccc(O[C@@H]2CCOC2)c(F)c1` [Example 1, (R)-4-(3-(3-Fluoro-4-((tetrahydrofuran-3-yl)oxy)phenyl)-4,4-dimethyl-5-oxo-2-thioxoimidazolidin-1-yl)-2-(trifluoromethyl)benzonitrile], for which the concentration for half-maximal inhibition (IC50) came out at 0.195 µM in series [2] and 0.034 µM in series [1] (setting [4]).

Consider `CC1(C)C(=O)N(c2ccc(C#N)c(C(F)(F)F)c2)C(=S)N1c1ccc(O[C@H]2CCOC2)c(F)c1` [Example 2, (S)-4-(3-(3-Fluoro-4-((tetrahydrofuran-3-yl)oxy)phenyl)-4,4-dimethyl-5-oxo-2-thioxoimidazolidin-1-yl)-2-(trifluoromethyl)benzonitrile], for which the results for the 50% inhibitory concentration (IC50) in series [2] and in series [1] (setting [4]) were 0.097 µM and 0.045 µM, respectively.

For the compound `CC1(C)C(=O)N(c2ccc(C#N)c(C(F)(F)F)c2)C(=S)N1c1ccc(OC(F)F)c(F)c1` [Example 3, 4-(3-(4-(Difluoromethoxy)-3-fluorophenyl)-4,4-dimethyl-5-oxo-2-thioxoimidazolidin-1-yl)-2-(trifluoromethyl)benzonitrile], the figures for the 50% inhibitory concentration (IC50) in series [2] and in series [1] (setting [4]) were 0.046 µM and 0.035 µM, respectively.

With `CC1(C)C(=O)N(c2ccc(C#N)c(C(F)(F)F)c2)C(=S)N1c1ccc(OC2CCOCC2)c(F)c1` [Example 4, 4-(3-(3-Fluoro-4-((tetrahydro-2H-pyran-4-yl)oxy)phenyl)-4,4-dimethyl-5-oxo-2-thioxoimidazolidin-1-yl)-2-(trifluoromethyl)benzonitrile], the 50% inhibitory concentration (IC50) in series [1] (setting [4]) worked out at 0.093 µM.

Consider `CC1(C)C(=O)N(c2ccc(C#N)c(C(F)(F)F)c2)C(=S)N1c1ccc(OCC2(O)CC2)c(F)c1` [Example 5, 4-(3-(3-Fluoro-4-((1-hydroxycyclopropyl)methoxy)phenyl)-4,4-dimethyl-5-oxo-2-thioxoimidazolidin-1-yl)-2-(trifluoromethyl)benzonitrile], for which the IC50 in series [2] is 0.087 µM; in series [1] (setting [4]) it was 0.124 µM.

As to `CC1(C)C(=O)N(c2ccc(C#N)c(C(F)(F)F)c2)C(=S)N1c1ccc(OCC2(N)CC2)nc1` [Example 11, 4-(3-(6-((1-Aminocyclopropyl)methoxy)pyridin-3-yl)-4,4-dimethyl-5-oxo-2-thioxoimidazolidin-1-yl)-2-(trifluoromethyl)benzonitrile], the IC50 in series [1] (LNCaP) is 0.035 µM. Besides, in series [3], the Vd/F is 9.94 ± 0.633 L/kg, the exposure (AUC) was found to be 11.5 ± 1.38 µg·h/mL, the CL/F stood at 0.441 ± 0.0522 L/h/kg and the half-life is 15.8 ± 2.2 h. Further, in series [3], the MRT is 23.2 ± 2.9 h and the Cmax was 0.43 ± 0.014 µg/mL.

On to `CC1(C)C(=O)N(c2ccc(C#N)c(C(F)(F)F)c2)C(=S)N1c1ccc(O[C@H]2COC[C@@H]2O)cc1` [Example 16, 4-(3-(4-(((3S,4S)-4-hydroxytetrahydrofuran-3-yl)oxy)phenyl)-4,4-dimethyl-5-oxo-2-thioxoimidazolidin-1-yl)-2-(trifluoromethyl)benzonitrile], for which, in series [1] (LNCaP), the IC50 came to 0.012 µM. Besides, in series [3], the Vd/F was found to be 3.59 ± 0.662 L/kg, the area under the curve (AUC) is 23.3 ± 5.9 µg·h/mL, the CL/F came to 0.223 ± 0.0504 L/h/kg and the half-life was 11.3 ± 1.3 h. Besides, in series [3], the MRT turned out to be 18.4 ± 2.6 h and the Cmax came to 0.971 ± 0.147 µg/mL.

With `CC1(C)C(=O)N(c2ccc(C#N)c(C(F)(F)F)c2)C(=S)N1c1ccc(OCCO)cc1` [Example 17, 4-(3-(4-(2-Hydroxyethoxy)phenyl)-4,4-dimethyl-5-oxo-2-thioxoimidazolidin-1-yl)-2-(trifluoromethyl)benzonitrile], the IC50 in series [1] (LNCaP) was 0.024 µM. In series [3], the Vd/F came to 3.76 ± 0.591 L/kg, the AUC amounted to 12.2 ± 1.52 µg·h/mL, the CL/F turned out to be 0.413 ± 0.0534 L/h/kg and the half-life is 6.31 ± 0.5 h. In series [3], the MRT was 10.8 ± 0.8 h and the Cmax stood at 0.864 ± 0.086 µg/mL.

On to `CN1CC[C@H](Oc2ccc(N3C(=S)N(c4ccc(C#N)c(C(F)(F)F)c4)C(=O)C3(C)C)cc2F)C1` [Example 27, (S)-4-(3-(3-Fluoro-4-((1-methylpyrrolidin-3-yl)oxy)phenyl)-4,4-dimethyl-5-oxo-2-thioxoimidazolidin-1-yl)-2-(trifluoromethyl)benzonitrile], for which the IC50 in series [1] (setting [4]) is 0.083 µM.

As to `Cc1cc(N2C(=O)C(C)(C)N(c3ccc(OCC4(N)CC4)c(F)c3)C2=S)ccc1C#N` [Example 38, 4-(3-(4-((1-Aminocyclopropyl)methoxy)-3-fluorophenyl)-4,4-dimethyl-5-oxo-2-thioxoimidazolidin-1-yl)-2-methylbenzonitrile], the IC50 in series [1] (setting [4]) was 0.033 µM.

As to `CC(=O)N1CC(O)C(Oc2ccc(N3C(=S)N(c4ccc(C#N)c(C(F)(F)F)c4)C(=O)C3(C)C)cc2F)C1` (centres unmarked) [Example 46, 4-(3-(4-((1-Acetyl-4-hydroxypyrrolidin-3-yl)oxy)-3-fluorophenyl)-4,4-dimethyl-5-oxo-2-thioxoimidazolidin-1-yl)-2-(trifluoromethyl)benzonitrile], the 50% inhibitory concentration (IC50) in series [1] (setting [4]) came to 0.047 µM.

With `CN1CC(O)C(Oc2ccc(N3C(=S)N(c4ccc(C#N)c(C(F)(F)F)c4)C(=O)C3(C)C)cc2F)C1` (centres unmarked) [Example 47, 4-(3-(3-Fluoro-4-((4-hydroxy-1-methylpyrrolidin-3-yl)oxy)phenyl)-4,4-dimethyl-5-oxo-2-thioxoimidazolidin-1-yl)-2-(trifluoromethyl)benzonitrile], in series [1] (setting [4]), the IC50 is 0.021 µM.

Take `CC1(C)C(=O)N(c2ccc(C#N)c(C(F)(F)F)c2)C(=S)N1c1ccc(OC[C@@H](O)CO)c(F)c1` [Example 49, (S)-4-(3-(4-(2,3-Dihydroxypropoxy)-3-fluorophenyl)-4,4-dimethyl-5-oxo-2-thioxoimidazolidin-1-yl)-2-(trifluoromethyl)benzonitrile]: the IC50 in series [1] (LNCaP) amounted to 0.035 µM.

On to `CC1(C)C(=O)N(c2ccc(C#N)c(C(F)(F)F)c2)C(=S)N1c1ccc(OC[C@H](O)CO)c(F)c1` [Example 50, (R)-4-(3-(4-(2,3-Dihydroxypropoxy)-3-fluorophenyl)-4,4-dimethyl-5-oxo-2-thioxoimidazolidin-1-yl)-2-(trifluoromethyl)benzonitrile], for which the IC50 in series [1] (LNCaP) was 0.043 µM.
